From article PMC5218480 (PLoS ONE, 2017)

Tested on: MV-4-11 cells
Assay: Gene expression microarray analysis (Affymetrix PrimeView) and GSEA
Assay type: cell-based, human
Design: RFU PODN (11730768_x_at) / Fold change /veh PODN (11730768_x_at) / RFU LINC00158 (11744669_a_at) / Fold change /veh LINC00158 (11744669_a_at) / RFU DUSP10 (11751237_a_at) / Fold change /veh DUSP10 (11751237_a_at) / RFU ID3 (11757404_x_at) / Fold change /veh ID3 (11757404_x_at) / RFU PLEKHG5 (11737974_s_at) / Fold change /veh PLEKHG5 (11737974_s_at) / RFU LRRC4B (11730491_at) / Fold change /veh LRRC4B (11730491_at) / RFU GIMAP4 (11747438_a_at) / Fold change /veh GIMAP4 (11747438_a_at) / RFU KRT8 (11758183_x_at) / Fold change /veh KRT8 (11758183_x_at) / RFU CNN1 (11734310_a_at) / Fold change /veh CNN1 (11734310_a_at) / RFU VPS37D (11726825_at) / Fold change /veh VPS37D (11726825_at) / RFU C10orf10 (11716522_x_at) / Fold change /veh C10orf10 (11716522_x_at) / RFU KIR2DL2 /// KIR2DL4 /// KIR2DL5A /// KIR2DL5B /// KIR2DS1 /// KIR2DS2 /// KIR2DS3 /// KIR2DS4 /// KIR3DL3 /// KIR3DL3 /// KIR3DS1 (11738374_at) / Fold change /veh KIR2DL2 /// KIR2DL4 /// KIR2DL5A /// KIR2DL5B /// KIR2DS1 /// KIR2DS2 /// KIR2DS3 /// KIR2DS4 /// KIR3DL3 /// KIR3DL3 /// KIR3DS1 (11738374_at) / RFU C1QL1 (11718748_at) / Fold change /veh C1QL1 (11718748_at) / RFU TMPRSS4 (11747572_a_at) / Fold change /veh TMPRSS4 (11747572_a_at) / RFU HAMP (11756126_x_at) / Fold change /veh HAMP (11756126_x_at) / RFU RNFT2 (11725882_a_at) / Fold change /veh RNFT2 (11725882_a_at) / RFU NR4A2 (11747474_a_at) / Fold change /veh NR4A2 (11747474_a_at) / RFU ABCC12 (11746883_a_at) / Fold change /veh ABCC12 (11746883_a_at) / RFU TMEM136 (11760407_x_at) / Fold change /veh TMEM136 (11760407_x_at) / RFU CLDN22 /// WWC2 (11732394_at) / Fold change /veh CLDN22 /// WWC2 (11732394_at) / RFU HLA-DPB1 (11760878_x_at) / Fold change /veh HLA-DPB1 (11760878_x_at) / RFU SPINT1 (11716480_a_at) / Fold change /veh SPINT1 (11716480_a_at) / RFU GAP43 (11754022_s_at) / Fold change /veh GAP43 (11754022_s_at) / RFU A4GNT (11735810_at) / Fold change /veh A4GNT (11735810_at) / RFU PRB3 (11715151_x_at) / Fold change /veh PRB3 (11715151_x_at) / RFU TUBB4B (11761932_at) / Fold change /veh TUBB4B (11761932_at) / RFU CAPN14 (11732068_a_at) / Fold change /veh CAPN14 (11732068_a_at) / RFU TMCC2 (11721928_a_at) / Fold change /veh TMCC2 (11721928_a_at) / RFU IRGQ (11745062_a_at) / Fold change /veh IRGQ (11745062_a_at) / RFU FAM174B (11720279_a_at) / Fold change /veh FAM174B (11720279_a_at) / RFU TMPRSS4 (11748680_a_at) / Fold change /veh TMPRSS4 (11748680_a_at) / RFU FAM212B (11763350_a_at) / Fold change /veh FAM212B (11763350_a_at) / RFU PLEKHG5 (11743358_a_at) / Fold change /veh PLEKHG5 (11743358_a_at) / RFU ZSCAN30 (11745921_a_at) / Fold change /veh ZSCAN30 (11745921_a_at) / RFU CMKLR1 (11741424_a_at) / Fold change /veh CMKLR1 (11741424_a_at) / RFU LOC101060620 /// MAPK8IP1 (11723275_at) / Fold change /veh LOC101060620 /// MAPK8IP1 (11723275_at) / RFU SPTSSB (11747773_x_at) / Fold change /veh SPTSSB (11747773_x_at) / RFU PRSS12 (11739890_at) / Fold change /veh PRSS12 (11739890_at) / RFU BIN1 (11741810_x_at) / Fold change /veh BIN1 (11741810_x_at) / RFU WNT11 (11732464_a_at) / Fold change /veh WNT11 (11732464_a_at) / RFU C10orf10 (11716521_a_at) / Fold change /veh C10orf10 (11716521_a_at) / RFU C5orf56 (11738089_at) / Fold change /veh C5orf56 (11738089_at) / RFU CYB561 (11721691_x_at) / Fold change /veh CYB561 (11721691_x_at) / RFU ANKRD19P (11752326_a_at) / Fold change /veh ANKRD19P (11752326_a_at) / RFU OR2T12 /// OR2T33 /// OR2T8 (11738714_s_at) / Fold change /veh OR2T12 /// OR2T33 /// OR2T8 (11738714_s_at) / RFU VCAN (11748164_a_at) / Fold change /veh VCAN (11748164_a_at) / RFU JSRP1 (11732532_at) / Fold change /veh JSRP1 (11732532_at) / RFU KRTAP10-11 (11738290_x_at) / Fold change /veh KRTAP10-11 (11738290_x_at) / RFU MYO3A (11730013_a_at) / Fold change /veh MYO3A (11730013_a_at) / RFU EBF3 (11725865_a_at) / Fold change /veh EBF3 (11725865_a_at) / RFU CAMK2N1 (11719241_x_at) / Fold change /veh CAMK2N1 (11719241_x_at) / RFU C5orf56 (11738088_a_at) / Fold change /veh C5orf56 (11738088_a_at) / RFU OLFML3 (11715873_a_at) / Fold change /veh OLFML3 (11715873_a_at) / RFU LOC100653217 /// NTM (11731650_a_at) / Fold change /veh LOC100653217 /// NTM (11731650_a_at) / RFU MAPK11 (11762145_a_at) / Fold change /veh MAPK11 (11762145_a_at) / RFU FIZ1 (11724087_x_at) / Fold change /veh FIZ1 (11724087_x_at) / RFU OASL (11726364_x_at) / Fold change /veh OASL (11726364_x_at) / RFU SOX15 (11748057_x_at) / Fold change /veh SOX15 (11748057_x_at) / RFU CD79A (11719716_a_at) / Fold change /veh CD79A (11719716_a_at) / RFU HIST1H1D (11736915_at) / Fold change /veh HIST1H1D (11736915_at) / RFU CASKIN2 (11723855_a_at) / Fold change /veh CASKIN2 (11723855_a_at) / RFU LOC730098 (11760151_x_at) / Fold change /veh LOC730098 (11760151_x_at) / RFU OR4N2 (11742367_at) / Fold change /veh OR4N2 (11742367_at) / RFU PRRT2 (11749266_a_at) / Fold change /veh PRRT2 (11749266_a_at) / RFU SNX32 (11753110_a_at) / Fold change /veh SNX32 (11753110_a_at) / RFU CDHR5 (11726645_a_at) / Fold change /veh CDHR5 (11726645_a_at) / RFU RCAN1 (11760418_a_at) / Fold change /veh RCAN1 (11760418_a_at) / RFU FAM167A (11723789_a_at) / Fold change /veh FAM167A (11723789_a_at) / RFU FAM26E (11764081_at) / Fold change /veh FAM26E (11764081_at) / RFU ISYNA1 (11749810_s_at) / Fold change /veh ISYNA1 (11749810_s_at) / RFU ACY1 (11761880_at) / Fold change /veh ACY1 (11761880_at) / RFU 11764098_at / Fold change /veh 11764098_at / RFU SAMD14 (11745864_x_at) / Fold change /veh SAMD14 (11745864_x_at) / RFU NPB (11741838_a_at) / Fold change /veh NPB (11741838_a_at) / RFU TMPRSS6 (11731388_a_at) / Fold change /veh TMPRSS6 (11731388_a_at) / RFU KRTAP10-2 (11738614_at) / Fold change /veh KRTAP10-2 (11738614_at) / RFU ARHGAP8 /// PRR5-ARHGAP8 (11727945_x_at) / Fold change /veh ARHGAP8 /// PRR5-ARHGAP8 (11727945_x_at) / RFU KRTAP5-7 /// NADSYN1 (11734609_at) / Fold change /veh KRTAP5-7 /// NADSYN1 (11734609_at) / RFU RASL12 (11751679_a_at) / Fold change /veh RASL12 (11751679_a_at) / RFU CDKN2B (11736163_a_at) / Fold change /veh CDKN2B (11736163_a_at) / RFU PRF1 (11729649_at) / Fold change /veh PRF1 (11729649_at) / RFU, ZNF638 /// ZNF638-IT1 / Fold change vs veh, ZNF638 /// ZNF638-IT1 / RFU, PANK3 / Fold change vs veh, PANK3 / RFU, SH3YL1 / Fold change vs veh, SH3YL1 / RFU, ZEB2 / Fold change vs veh, ZEB2 / RFU, NRIP1 / Fold change vs veh, NRIP1 / RFU, PTTG1IP / Fold change vs veh, PTTG1IP / RFU, CAPN2 / Fold change vs veh, CAPN2 / RFU, MED14 / Fold change vs veh, MED14 / RFU, SNORA58 / Fold change vs veh, SNORA58 / RFU, C1orf63 / Fold change vs veh, C1orf63 / RFU, LRRFIP1 / Fold change vs veh, LRRFIP1 / RFU, NDUFAF7 / Fold change vs veh, NDUFAF7 / RFU, SLC12A2 / Fold change vs veh, SLC12A2 / RFU, IBTK / Fold change vs veh, IBTK / RFU, ESF1 / Fold change vs veh, ESF1 / Fold change vs veh, TMEM50B / RFU, TAOK1 / Fold change vs veh, TAOK1 / RFU, ACBD3 / Fold change vs veh, ACBD3 / RFU, TMA16 / Fold change vs veh, TMA16 / RFU, RWDD3 / Fold change vs veh, RWDD3 / RFU, BCAT1 / Fold change vs veh, BCAT1 / RFU, EDEM3 / Fold change vs veh, EDEM3 / RFU, TMEM33 / Fold change vs veh, TMEM33 / RFU, WDR75 / Fold change vs veh, WDR75 / RFU, AHCTF1 / Fold change vs veh, AHCTF1 / RFU, TFRC / Fold change vs veh, TFRC / RFU, ZDHHC17 / Fold change vs veh, ZDHHC17 / RFU, NOM1 / Fold change vs veh, NOM1 / RFU, ARL8B / Fold change vs veh, ARL8B / RFU, ZBTB11 / Fold change vs veh, ZBTB11 / RFU, TAMM41 / Fold change vs veh, TAMM41 / RFU, KIAA1704 /// LOC100996395 / Fold change vs veh, KIAA1704 /// LOC100996395 / RFU, ING1 / Fold change vs veh, ING1 / RFU, TRMT61B / Fold change vs veh, TRMT61B / RFU, FUBP3 / Fold change vs veh, FUBP3 / RFU, TP53 / Fold change vs veh, TP53 / RFU, TNKS2 / Fold change vs veh, TNKS2 / RFU, ZFP14 / Fold change vs veh, ZFP14 / RFU, ACTR2 / Fold change vs veh, ACTR2 / RFU, PPP3R1 / Fold change vs veh, PPP3R1 / RFU, PIK3R1 / Fold change vs veh, PIK3R1 / RFU, HNRNPA1 / Fold change vs veh, HNRNPA1 / RFU, RNF170 / Fold change vs veh, RNF170 / RFU, ZNF28 / Fold change vs veh, ZNF28 / RFU, RNGTT / Fold change vs veh, RNGTT / RFU, OGT / Fold change vs veh, OGT / RFU, BRD1 / Fold change vs veh, BRD1 / RFU, MARS / Fold change vs veh, MARS / RFU, ZNF655 / Fold change vs veh, ZNF655 / RFU, FAHD1 / Fold change vs veh, FAHD1 / RFU, BDP1 / Fold change vs veh, BDP1 / RFU, LRRCC1 / Fold change vs veh, LRRCC1 / RFU, ARID1A / Fold change vs veh, ARID1A / RFU, ZNF146 / Fold change vs veh, ZNF146 / RFU, ZNF330 / Fold change vs veh, ZNF330 / RFU, GPN3 / Fold change vs veh, GPN3 / RFU, C9orf123 / Fold change vs veh, C9orf123 / RFU, N4BP2L2 / Fold change vs veh, N4BP2L2 / RFU, ARFIP1 / Fold change vs veh, ARFIP1 / RFU, FAM179B / Fold change vs veh, FAM179B / RFU, BCL10 / Fold change vs veh, BCL10 / RFU, UHRF1BP1L / Fold change vs veh, UHRF1BP1L / RFU, BET1 / Fold change vs veh, BET1 / RFU, CNOT2 / Fold change vs veh, CNOT2 / RFU, ZNF268 / Fold change vs veh, ZNF268 / Fold change vs veh, ZNF507 / RFU, DGCR2 / Fold change vs veh, DGCR2 / RFU, WDSUB1 / Fold change vs veh, WDSUB1 / Fold change vs veh, HSP90B1 /// MIR3652 / RFU, ADSS / Fold change vs veh, ADSS / RFU, GK / Fold change vs veh, GK / RFU, ZNF148 / Fold change vs veh, ZNF148 / RFU, TAF9 / Fold change vs veh, TAF9 / RFU, SLC1A5 / Fold change vs veh, SLC1A5 / RFU, SLMO2 / Fold change vs veh, SLMO2 / RFU, ABCC4 / Fold change vs veh, ABCC4 / RFU, LOC101060439 /// RAP1B / Fold change vs veh, LOC101060439 /// RAP1B / RFU, RFX7 / Fold change vs veh, RFX7 / RFU, GTPBP10 / Fold change vs veh, GTPBP10 / RFU, CNEP1R1 / Fold change vs veh, CNEP1R1 / RFU, BIVM-ERCC5 /// ERCC5 / Fold change vs veh, BIVM-ERCC5 /// ERCC5 / RFU, ILF3 / Fold change vs veh, ILF3 / RFU 11762660_at / Fold change /veh 11762660_at / RFU VCAN (11757783_s_at) / Fold change /veh VCAN (11757783_s_at) / RFU DDX43 (11728927_at) / Fold change /veh DDX43 (11728927_at) / RFU KRT8 (11758188_x_at) / Fold change /veh KRT8 (11758188_x_at) / RFU NKD1 (11759106_at) / Fold change /veh NKD1 (11759106_at) / RFU SRD5A1 (11742802_a_at) / Fold change /veh SRD5A1 (11742802_a_at) / RFU TPSAB1 /// TPSB2 (11721975_s_at) / Fold change /veh TPSAB1 /// TPSB2 (11721975_s_at) / RFU GSTM3 (11746129_a_at) / Fold change /veh GSTM3 (11746129_a_at) / RFU IL23R (11737362_x_at) / Fold change /veh IL23R (11737362_x_at) / RFU TMEM51 (11727254_a_at) / Fold change /veh TMEM51 (11727254_a_at) / RFU PIWIL2 (11732686_x_at) / Fold change /veh PIWIL2 (11732686_x_at) / RFU ORM1 (11744905_x_at) / Fold change /veh ORM1 (11744905_x_at) / RFU CCDC152 (11743942_at) / Fold change /veh CCDC152 (11743942_at) / RFU ECM1 (11717891_a_at) / Fold change /veh ECM1 (11717891_a_at) / RFU IL23R (11748794_a_at) / Fold change /veh IL23R (11748794_a_at) / RFU TNFAIP8L3 (11732012_x_at) / Fold change /veh TNFAIP8L3 (11732012_x_at) / RFU MBOAT4 (11741988_at) / Fold change /veh MBOAT4 (11741988_at) / RFU 11764193_at / Fold change /veh 11764193_at / RFU TMEM53 (11763286_at) / Fold change /veh TMEM53 (11763286_at) / RFU MAGEB2 (11727129_at) / Fold change /veh MAGEB2 (11727129_at) / RFU TMEM200A (11744735_a_at) / Fold change /veh TMEM200A (11744735_a_at) / RFU CCDC152 (11751479_a_at) / Fold change /veh CCDC152 (11751479_a_at) / RFU FAM211A (11726209_a_at) / Fold change /veh FAM211A (11726209_a_at) / RFU RGS16 (11746705_a_at) / Fold change /veh RGS16 (11746705_a_at) / RFU VCAN (11755009_s_at) / Fold change /veh VCAN (11755009_s_at) / RFU RHOB (11743442_s_at) / Fold change /veh RHOB (11743442_s_at) / RFU RGS16 (11720943_a_at) / Fold change /veh RGS16 (11720943_a_at) / RFU RGS16 (11720944_at) / Fold change /veh RGS16 (11720944_at) / RFU, VPS4B / Fold change vs veh, VPS4B / RFU, CREB1 / Fold change vs veh, CREB1 / RFU, DNAJC13 / Fold change vs veh, DNAJC13 / RFU, GNAQ / Fold change vs veh, GNAQ / RFU, CDK5R1 / Fold change vs veh, CDK5R1 / RFU, ZRANB3 / Fold change vs veh, ZRANB3 / RFU, CUL4A / Fold change vs veh, CUL4A / RFU, CCNY / Fold change vs veh, CCNY / RFU, UFL1 / Fold change vs veh, UFL1 / RFU, COG3 / Fold change vs veh, COG3 / RFU, DIAPH2 / Fold change vs veh, DIAPH2 / RFU, SKA2 / Fold change vs veh, SKA2 / RFU, AFF3 / Fold change vs veh, AFF3 / RFU, LMF1 / Fold change vs veh, LMF1 / RFU, IPO11 / Fold change vs veh, IPO11 / RFU, DFFB / Fold change vs veh, DFFB / RFU, FOXP1 / Fold change vs veh, FOXP1 / RFU, CARD8 / Fold change vs veh, CARD8 / RFU, STRN3 / Fold change vs veh, STRN3 / RFU, ADK / Fold change vs veh, ADK / RFU, RASSF2 / Fold change vs veh, RASSF2 / RFU, WIPF1 / Fold change vs veh, WIPF1 / RFU, LARP1B / Fold change vs veh, LARP1B / RFU, RASA1 / Fold change vs veh, RASA1 / RFU, RB1 / Fold change vs veh, RB1 / RFU, PPFIA1 / Fold change vs veh, PPFIA1 / RFU, MAT2A / Fold change vs veh, MAT2A / RFU, CCT5 / Fold change vs veh, CCT5 / RFU, WDR92 / Fold change vs veh, WDR92 / RFU, CUX1 / Fold change vs veh, CUX1 / RFU, TTC7A / Fold change vs veh, TTC7A / RFU, TMEM135 / Fold change vs veh, TMEM135 / RFU, DEPTOR / Fold change vs veh, DEPTOR / RFU, CPM / Fold change vs veh, CPM / RFU, DNAJB6 / Fold change vs veh, DNAJB6 / RFU, CACNA2D3 / Fold change vs veh, CACNA2D3 / RFU, DTX4 / Fold change vs veh, DTX4 / RFU, TFCP2 / Fold change vs veh, TFCP2 / RFU, GMCL1 /// GMCL1P1 / Fold change vs veh, GMCL1 /// GMCL1P1 / RFU, AEBP2 / Fold change vs veh, AEBP2 / RFU, SNHG1 /// SNORD22 /// SNORD25 /// SNORD26 /// SNORD27 /// SNORD28 /// SNORD29 /// SNORD31 / Fold change vs veh, SNHG1 /// SNORD22 /// SNORD25 /// SNORD26 /// SNORD27 /// SNORD28 /// SNORD29 /// SNORD31 / Fold change (Aza/veh), C12orf56 (ProbeSet 11735607_a_at) / Fold change (ACY-1035/veh), C12orf56 (ProbeSet 11735607_a_at) / Fold change (Aza/veh), FGFR1OP (ProbeSet 11751329_s_at) / Fold change (ACY-1035/veh), FGFR1OP (ProbeSet 11751329_s_at) / Fold change (Aza/veh), VPS36 (ProbeSet 11739960_a_at) / Fold change (ACY-1035/veh), VPS36 (ProbeSet 11739960_a_at) / RFU SYPL1 (11715823_x_at) / Fold change /veh SYPL1 (11715823_x_at) / RFU IGFBP7 (11715501_s_at) / Fold change /veh IGFBP7 (11715501_s_at) / RFU REEP3 (11722064_at) / Fold change /veh REEP3 (11722064_at) / RFU IGLL1 (11728026_x_at) / Fold change /veh IGLL1 (11728026_x_at): dose or concentration left out as unconfirmed
Conditions: MV-4-11 cells, 48 hours

Nc1ncn([C@@H]2O[C@H](CO)[C@@H](O)[C@H]2O)c(=O)n1 [azacitidine]
RFU GAP43 (11754022_s_at): 65.19 RFU
